A short description of the data set: Effect of heat inactivation and vitamin C on dhBBR-to-BBR transformation in rat small intestine homogenate. The following applies: homogenate boiled for 2 min. It counts as in vitro ADME. How it is done:
The rats (n = 3) were sacrificed to obtain fresh small intestine homogenate. The homogenate was then boiled for 2 min to inactivate all of the enzymes. After pre-incubation at 37 °C for 2 min, 5 μl of dhBBR (10 mM, dissolved in DMSO) was added into the inactivated homogenate, and fresh homogenate (active one) was used as a reference. The sample was mixed thoroughly and centrifuged at 16,000 g for 5 min. The supernatant was transferred into new tubes, treated with 500 μl of acetonitrile, and then centrifuged. Twenty-microliter aliquots were used for the HPLC analysis.
To examine the oxidative reaction, 100 μl of vitamin C was pre-incubated with the inactivated homogenate; the final concentrations of vitamin C were 95, 9.5 and 0.95 mM. The superoxide anion in the sample was detected with an O2^− ELISA kit (Beijing Biolab Co., Ltd., Beijing, China; lot: 201404) following the manufacturer’s instructions.

For `COc1ccc2c(c1OC)CN1CCc3cc4c(cc3C1=C2)OCO4` [dhBBR, dihydroberberine], the “effect of heat inactivation of homogenate on dhBBR-to-BBR reversion” value is given as “did not reduce the dhBBR-to-BBR reversion”.

The record behind these values is PMC4502414, “Transforming berberine into its intestine-absorbable form by the gut microbiota” (Scientific Reports, 2015).
